Measured values published in ChEMBL document CHEMBL1201862, “PubChem BioAssay data set” (2004).
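Interpolation was linear, between the two tested concentrations surrounding the appropriate level; five concentrations were tested over 48 hours in 96-well plates. GI50 = concentration required for 50% inhibition of growth.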 The source made the active and inactive calls. No stated cut-off is given here; in the data, active = GI50 up to about 1.1 µM and inactive = higher.

Key:
Test in all cases: growth of human tumour cells (NCI), 48 h
[1] = test system: LOX IMVI
[2] = test system: IGROV-1
[3] = test system: Malme-3M
[4] = test system: UACC-62
[5] = test system: OVCAR-3
[6] = test system: OVCAR-5
[7] = test system: PC-3
[8] = test system: SNB-75
[9] = test system: SF-295
[10] = test system: DU-145
[11] = test system: OVCAR-8
[12] = test system: UO-31
[13] = test system: CAKI-1
[14] = test system: NCI/ADR-RES
[15] = test system: HCC 2998
[16] = test system: 786-0
[17] = test system: SNB-19
[18] = test system: RPMI-8226
[19] = test system: K562
[20] = test system: SF-539

Measured: GI50

COC(=O)C1(O)C(c2ccccc2)=NC2(C)CCCC21 (stereo not drawn)
inactive: [1] > 100 µM | [2] > 100 µM | [3] > 100 µM | [4] > 100 µM | [5] > 100 µM | [6] > 100 µM | [7] > 100 µM | [8] > 100 µM | [9] > 100 µM | [10] > 100 µM | [11] > 100 µM | [12] > 100 µM | [13] > 100 µM | [14] > 100 µM | [15] > 100 µM | [16] > 100 µM | [17] > 100 µM | [18] > 100 µM | [19] > 100 µM

CC(C)OCC1CC(CC(=O)Nc2nncs2)C(=O)O1 (stereo not drawn)
inactive: [1] > 100 µM | [2] > 100 µM | [4] > 100 µM | [5] > 100 µM | [6] > 100 µM | [7] > 100 µM | [20] > 100 µM | [8] > 100 µM | [9] > 100 µM | [10] > 100 µM | [11] > 100 µM | [12] > 100 µM | [13] > 100 µM | [14] > 100 µM | [15] > 100 µM | [16] > 100 µM | [17] > 100 µM | [18] > 100 µM | [19] > 100 µM

CCOC(=O)NNC(=O)NCc1ccccc1CNC(=O)NNC(=O)OCC
inactive: [1] > 100 µM | [2] > 100 µM | [3] > 100 µM | [4] > 100 µM | [5] > 100 µM | [6] > 100 µM | [7] > 100 µM | [20] > 100 µM | [8] > 100 µM | [10] > 100 µM | [11] > 100 µM | [12] > 100 µM | [13] > 100 µM | [14] > 100 µM | [15] > 100 µM | [16] > 100 µM | [17] > 100 µM | [18] > 100 µM | [19] > 100 µM

C(=N\c1ccc(-c2nc3ccccc3[nH]2)cc1)/c1ccc[nH]1
inactive: [1] 76.6 µM | [2] > 100 µM | [3] > 100 µM | [4] 55.3 µM | [5] 69 µM | [6] > 100 µM | [7] 70.8 µM | [20] > 100 µM | [8] > 100 µM | [10] > 100 µM | [11] 83.9 µM | [12] 69.3 µM | [13] > 100 µM | [14] > 100 µM | [15] 29.5 µM | [16] 83.4 µM | [18] 37.8 µM | [19] 41.3 µM

O=C1/C(=C/c2cccc(Oc3ccccc3)c2)N=C(c2ccccc2)N1c1nc2ccc(Sc3ccccc3)cc2[nH]1
inactive: [1] 30.9 µM | [2] 46.9 µM | [3] 67.8 µM | [4] 23.2 µM | [5] 15.8 µM | [6] 57.8 µM | [7] 29.9 µM | [8] 18.2 µM | [9] 19.7 µM | [10] 27.3 µM | [11] 29.9 µM | [12] 50.1 µM | [13] 36.2 µM | [14] 20.5 µM | [15] 13.3 µM | [16] 32.3 µM | [17] 35.5 µM | [18] 20.5 µM | [19] 23.7 µM

CC1CCC2C(C)C(=O)OC2C2(C)C(=O)C=CC12 (stereo not drawn)
inactive: [1] 8.69 µM | [2] > 10 µM | [4] > 10 µM | [5] > 10 µM | [6] > 10 µM | [7] > 10 µM | [20] > 10 µM | [8] > 10 µM | [9] > 10 µM | [10] > 10 µM | [11] > 10 µM | [12] > 10 µM | [13] > 10 µM | [14] > 10 µM | [15] > 10 µM | [16] > 10 µM | [17] > 10 µM | [18] 8.47 µM | [19] 4.57 µM

CCOP(=O)(OCC)C(C)(CC)N/C(=N\C1=NC(C(F)(F)F)(C(F)(F)F)N=C(C(F)(F)F)O1)NC(NC(C)=O)(C(F)(F)F)C(F)(F)F (stereo not drawn)
inactive: [1] 32.2 µM | [2] 51.2 µM | [3] 22.1 µM | [4] 35.3 µM | [5] 40.3 µM | [6] 45 µM | [7] 21.2 µM | [20] 40.2 µM | [8] 2.3 µM | [9] 18 µM | [10] 81.5 µM | [11] 36.6 µM | [13] 42 µM | [14] 17.9 µM | [15] 34 µM | [16] 37.3 µM | [17] 60.4 µM | [18] 24.2 µM | [19] 16.9 µM

O=C(Cn1c(=O)oc2ccc(C(=O)c3ccc(F)cc3)cc21)c1ccc([N+](=O)[O-])cc1
inactive: [1] 34.8 µM | [2] 24.3 µM | [3] 31.8 µM | [4] 34.2 µM | [6] > 100 µM | [7] 22.5 µM | [20] 41.1 µM | [8] 36.9 µM | [10] 46.7 µM | [11] 25.8 µM | [12] 19.6 µM | [13] 47.6 µM | [14] 33.8 µM | [15] 15.9 µM | [16] 33 µM | [17] 47.1 µM | [18] 22.2 µM | [19] 28.3 µM

COc1cc(/C=C2\C(=O)N(c3cccc([N+](=O)[O-])c3)C(c3ccccc3)S2(=O)=O)cc(OC)c1OC (stereo not drawn)
inactive: [1] > 100 µM | [2] > 100 µM | [3] > 100 µM | [4] 80.7 µM | [5] > 100 µM | [6] > 100 µM | [7] > 100 µM | [8] > 100 µM | [9] 97.5 µM | [10] > 100 µM | [11] > 100 µM | [12] > 100 µM | [13] > 100 µM | [14] > 100 µM | [15] > 100 µM | [16] > 100 µM | [17] > 100 µM | [18] 64.9 µM | [19] 49.4 µM

COc1ccc(C23OCC(Cc4cc(OC)c(OC)cc42)C3CO)cc1OC (stereo not drawn)
inactive: [1] > 100 µM | [3] > 100 µM | [4] > 100 µM | [5] > 100 µM | [6] > 100 µM | [7] > 100 µM | [20] > 100 µM | [8] > 100 µM | [9] > 100 µM | [10] > 100 µM | [12] > 100 µM | [13] > 100 µM | [14] > 100 µM | [15] > 100 µM | [16] > 100 µM | [17] > 100 µM | [18] > 100 µM | [19] > 100 µM

COC(=O)c1ccccc1CC1Cc2cccc(C)c2C1=O (stereo not drawn)
inactive: [1] 22.4 µM | [2] 46.5 µM | [3] 19.2 µM | [4] 30.5 µM | [5] 33.7 µM | [6] 57.5 µM | [7] 24 µM | [20] 89.7 µM | [8] 22.7 µM | [9] 38.9 µM | [10] 96.4 µM | [11] 35 µM | [12] 22.7 µM | [13] 80.2 µM | [14] 32.7 µM | [15] 40.3 µM | [16] 47.5 µM | [17] 52.5 µM | [19] 22.3 µM

CCOC(=O)c1c(-c2ccc(OC)cc2)c(C#N)c(=S)n(C2OC(CO)C(O)C(O)C2O)c1-c1ccccc1 (stereo not drawn)
inactive: [1] 41.9 µM | [2] 59.6 µM | [3] 73.5 µM | [4] 28.2 µM | [5] 24.6 µM | [6] > 100 µM | [7] 35.6 µM | [20] 38.1 µM | [8] 78.7 µM | [9] 44.9 µM | [10] 48.4 µM | [12] 51.5 µM | [13] 50.7 µM | [14] > 100 µM | [15] 39.6 µM | [16] 48.2 µM | [17] 85.1 µM | [18] 46.9 µM | [19] 34.4 µM

CC(O)=NC(Cc1ccc2ccccc2c1)C(O)=NC(Cc1ccc(Cl)cc1)C(O)=NC(Cc1c[nH]c2ccccc12)C(O)=NC(CO)C(O)=NC(Cc1ccc(O)cc1)C(O)=NC(CCCN=C(N)N)C(O)=NC(CC(C)C)C(O)=NC(CCCN=C(N)N)C(=O)N1CCCC1C(O)=NC(C)C(=N)O (stereo not drawn)
inactive: [2] 33.7 µM | [3] 99.5 µM | [4] 45.6 µM | [5] > 100 µM | [6] 41.3 µM | [7] 32.3 µM | [20] 36.6 µM | [8] 38.1 µM | [9] 27.9 µM | [10] 26.5 µM | [11] 27.1 µM | [12] 26 µM | [13] 54.7 µM | [14] 60.3 µM | [15] 63.4 µM | [16] 35.8 µM | [17] 48.9 µM | [18] > 100 µM | [19] > 100 µM

O=C(NCCN(CCNC(=O)c1cccc(O)c1O)CCNC(=O)c1cccc(O)c1O)c1cccc(O)c1O [TRENCAM]
inactive: [1] 1.22 µM | [2] 4.73 µM | [3] 2.51 µM | [4] 4.78 µM | [5] 2.69 µM | [6] 66.2 µM | [7] 11.4 µM | [20] 3.85 µM | [8] 22.2 µM | [9] 25.4 µM | [10] 6.98 µM | [11] 3.15 µM | [12] 14.9 µM | [13] 21.9 µM | [14] 49.4 µM | [15] 3.4 µM | [16] 5.89 µM | [17] 5.22 µM | [19] 5.28 µM
